From the CheMixHub ionic liquid set

Assay: xn = mol fraction of the nth substance listed

CCCCCCCCCCCCCCCC[n+]1ccccc1.O=C([O-])c1ccccc1O + CC(C)C[C@H](N)C(=O)O + O
electrical conductivity [S/m], 101 kPa
Details | 293.15 K | 298.15 K | 303.15 K | 308.15 K | 313.15 K
x2 = 0.0009002, x1 = 3.6e-07 | 0.000905 | 0.00101 | 0.00113 | 0.00125 | 0.00138
x2 = 0.0009002, x1 = 7.2e-07 | 0.00104 | 0.00117 | 0.0013 | 0.00144 | 0.00159
x2 = 0.0009002, x1 = 9.1e-07 | 0.00119 | 0.00133 | 0.00148 | 0.00164 | 0.00181
x2 = 0.0009002, x1 = 1.27e-06 | 0.00132 | 0.00148 | 0.00165 | 0.00183 | 0.00201
x2 = 0.0009002, x1 = 1.63e-06 | 0.00147 | 0.00166 | 0.00184 | 0.00204 | 0.00225
x2 = 0.0009002, x1 = 1.99e-06 | 0.00163 | 0.00185 | 0.00207 | 0.00229 | 0.00253
x2 = 0.0009002, x1 = 2.54e-06 | 0.00179 | 0.00203 | 0.00229 | 0.00255 | 0.00282
x2 = 0.0009002, x1 = 2.9e-06 | – | – | – | 0.00275 | 0.00309
x2 = 0.0009002, x1 = 3.08e-06 | 0.00192 | 0.00218 | 0.00246 | – | –
x2 = 0.0009002, x1 = 3.44e-06 | 0.00203 | 0.00231 | 0.00263 | 0.00297 | 0.00331
x2 = 0.0009002, x1 = 3.81e-06 | – | 0.00243 | 0.00276 | 0.00311 | 0.00348
x2 = 0.0009002, x1 = 3.99e-06 | 0.00214 | – | – | – | –
x2 = 0.0009002, x1 = 4.35e-06 | 0.00224 | 0.00256 | 0.00289 | 0.00327 | 0.00366
x2 = 0.0009002, x1 = 4.71e-06 | 0.00235 | 0.00268 | 0.00303 | 0.00342 | 0.00383
x2 = 0.0009002, x1 = 5.07e-06 | – | – | 0.00316 | 0.00356 | 0.00399
x2 = 0.0009002, x1 = 5.26e-06 | 0.00246 | 0.0028 | – | – | –
x2 = 0.0009002, x1 = 5.62e-06 | 0.00255 | 0.0029 | 0.00328 | 0.00369 | 0.00415
x2 = 0.0009002, x1 = 5.98e-06 | 0.00266 | 0.00302 | 0.00341 | 0.00383 | 0.0043
x2 = 0.001799, x1 = 3.6e-07 | 0.00153 | 0.00172 | 0.00192 | 0.00213 | 0.00235
x2 = 0.001799, x1 = 5.5e-07 | 0.00167 | 0.00187 | 0.00208 | 0.00231 | 0.00256
x2 = 0.001799, x1 = 9.1e-07 | 0.00179 | 0.00201 | 0.00224 | 0.00249 | 0.00275
x2 = 0.001799, x1 = 1.09e-06 | 0.00192 | 0.00216 | 0.00241 | 0.00268 | 0.00296
x2 = 0.001799, x1 = 1.46e-06 | 0.00204 | 0.00229 | 0.00256 | 0.00283 | 0.00313
x2 = 0.001799, x1 = 1.64e-06 | 0.00212 | 0.00239 | 0.00267 | 0.00297 | 0.00329
x2 = 0.001799, x1 = 1.82e-06 | 0.00221 | 0.00248 | 0.00278 | 0.00309 | 0.00341
x2 = 0.001799, x1 = 2e-06 | 0.00227 | 0.00257 | 0.00288 | 0.00321 | 0.00356
x2 = 0.001799, x1 = 2.19e-06 | 0.00235 | – | 0.003 | 0.00334 | 0.0037
x2 = 0.001799, x1 = 2.37e-06 | – | – | – | – | 0.00384
x2 = 0.001799, x1 = 2.55e-06 | 0.00242 | 0.00275 | – | 0.00345 | –
x2 = 0.001799, x1 = 2.73e-06 | 0.00249 | 0.00284 | 0.00322 | 0.00361 | 0.00402
x2 = 0.001799, x1 = 3.1e-06 | 0.00256 | 0.00291 | 0.0033 | 0.0037 | 0.00413
x2 = 0.001799, x1 = 3.28e-06 | 0.00262 | 0.00298 | 0.00338 | 0.00379 | 0.00423
x2 = 0.001799, x1 = 3.46e-06 | – | – | – | – | 0.00434
x2 = 0.001799, x1 = 3.64e-06 | 0.00269 | 0.00306 | 0.00347 | 0.00389 | –
x2 = 0.001799, x1 = 3.83e-06 | 0.00275 | 0.00312 | 0.00354 | 0.00397 | 0.00443

CCCCCC[n+]1ccn(C)c1.O=S(=O)([O-])C(F)(F)F + CC(C)O
100 kPa
Details | viscosity [mPa·s]
293.15 K, x2 = 0.9231 | 3.79
298.15 K, x2 = 0.1282 | 99
298.15 K, x2 = 0.2454 | 67.9
298.15 K, x2 = 0.469 | 31.4
303.15 K, x2 = 0.3506 | 41.2
313.15 K, x2 = 0.9231 | 2.08

CCOP(=O)([O-])OCC.CC[n+]1ccn(C)c1 + CC(C)O + O
100 kPa
Details | viscosity [mPa·s]
298.15 K, x2 = 0.299, x3 = 0.3 | 79
313.15 K, x2 = 0.199, x3 = 0.2008 | 90
323.15 K, x2 = 0.099, x3 = 0.0998 | 94
323.15 K, x2 = 0.15, x3 = 0.1498 | 76

CCCCCCCCCCCCCCCC[n+]1ccccc1.O=C([O-])c1ccccc1O + CC(C)[C@H](N)C(=O)O + O
electrical conductivity [S/m], 101 kPa
Details | 293.15 K | 298.15 K | 303.15 K | 308.15 K | 313.15 K
x2 = 0.0009002, x1 = 3.6e-07 | 0.000683 | 0.000771 | 0.000864 | 0.000967 | 0.00108
x2 = 0.0009002, x1 = 7.2e-07 | 0.000869 | 0.000983 | 0.0011 | 0.00123 | 0.00136
x2 = 0.0009002, x1 = 1.27e-06 | 0.00105 | 0.00118 | 0.00133 | 0.00148 | 0.00164
x2 = 0.0009002, x1 = 1.63e-06 | 0.00122 | 0.00138 | 0.00155 | 0.00173 | 0.00192
x2 = 0.0009002, x1 = 1.99e-06 | 0.00138 | 0.00156 | 0.00175 | 0.00194 | 0.00215
x2 = 0.0009002, x1 = 2.35e-06 | 0.00152 | 0.00174 | 0.00196 | 0.00219 | 0.00243
x2 = 0.0009002, x1 = 2.9e-06 | 0.00168 | 0.00193 | 0.00219 | 0.00247 | 0.00274
x2 = 0.0009002, x1 = 3.44e-06 | 0.00182 | 0.00207 | 0.00235 | 0.00266 | 0.003
x2 = 0.0009002, x1 = 3.98e-06 | 0.00195 | 0.00223 | 0.00254 | 0.00287 | 0.00322
x2 = 0.0009002, x1 = 4.53e-06 | 0.00208 | 0.00236 | 0.00269 | 0.00303 | 0.00342
x2 = 0.0009002, x1 = 4.89e-06 | – | – | – | 0.0032 | 0.00359
x2 = 0.0009002, x1 = 5.07e-06 | 0.00218 | 0.00249 | 0.00283 | – | –
x2 = 0.0009002, x1 = 5.43e-06 | 0.00228 | 0.0026 | 0.00295 | 0.00334 | 0.00376
x2 = 0.0009002, x1 = 5.79e-06 | 0.00238 | 0.00271 | 0.00307 | 0.00346 | 0.00389
x2 = 0.0009002, x1 = 6.16e-06 | 0.00246 | 0.0028 | 0.00317 | 0.00358 | 0.00403
x2 = 0.001799, x1 = 1.8e-07 | 0.00108 | 0.00122 | 0.00138 | 0.00154 | 0.00173
x2 = 0.001799, x1 = 3.6e-07 | 0.00119 | 0.00135 | 0.00152 | 0.00169 | 0.00189
x2 = 0.001799, x1 = 7.3e-07 | 0.00132 | 0.00149 | 0.00168 | 0.00188 | 0.00209
x2 = 0.001799, x1 = 1.09e-06 | 0.00145 | 0.00164 | 0.00185 | 0.00206 | 0.0023
x2 = 0.001799, x1 = 1.27e-06 | 0.00157 | 0.00178 | 0.00199 | 0.00222 | 0.00248
x2 = 0.001799, x1 = 1.46e-06 | 0.00171 | 0.00193 | 0.00216 | 0.00242 | 0.00269
x2 = 0.001799, x1 = 1.64e-06 | 0.00177 | 0.002 | 0.00225 | 0.00252 | 0.0028
x2 = 0.001799, x1 = 1.82e-06 | 0.00183 | 0.00207 | 0.00233 | 0.0026 | 0.0029
x2 = 0.001799, x1 = 2e-06 | 0.00188 | 0.00213 | 0.0024 | 0.00268 | 0.00299
x2 = 0.001799, x1 = 2.18e-06 | 0.00196 | 0.00224 | 0.00252 | 0.00282 | 0.00314
x2 = 0.001799, x1 = 2.37e-06 | – | 0.00234 | 0.00267 | 0.00298 | 0.00332
x2 = 0.001799, x1 = 2.55e-06 | 0.00205 | – | – | – | –
x2 = 0.001799, x1 = 2.73e-06 | 0.00216 | 0.00248 | – | 0.00317 | 0.00355
x2 = 0.001799, x1 = 3.09e-06 | 0.00226 | 0.00258 | 0.00292 | 0.0033 | 0.0037
x2 = 0.001799, x1 = 3.46e-06 | 0.00234 | 0.00268 | 0.00304 | 0.00342 | 0.00384

CCCC[n+]1ccn(C)c1.COP(=O)([O-])OC + CCC(=O)O.CCC(=O)[O-].CC[NH+](CC)CCO
101 kPa, x2 = 0
Details | viscosity [mPa·s]
283.15 K | 2142
328.15 K | 100.9
343.15 K | 52.35
373.15 K | 19.25

CCCCCCCCn1cc[n+](C)c1.F[B-](F)(F)F + CCC(C)=O
298.15 K, 101 kPa
Details | viscosity [mPa·s]
x2 = 0.101 | 188
x2 = 0.4505 | 24.78
x2 = 0.7023 | 5.04
x2 = 0.8033 | 2.29
x2 = 0.899 | 1.03

CCCC[n+]1ccn(C)c1.COP(=O)([O-])OC + CCCC(=O)[O-].CC[NH+](CC)CCO
101 kPa, x2 = 0
Details | viscosity [mPa·s]
298.15 K | 609
318.15 K | 168.9
328.15 K | 100.9
348.15 K | 43.18
373.15 K | 19.25

CCCC[n+]1ccn(C)c1.COP(=O)([O-])OC + CCCCC(=O)[O-].CC[NH+](CC)CCO
101 kPa, x2 = 0
Details | viscosity [mPa·s]
303.15 K | 426
323.15 K | 129.4
328.15 K | 100.9
348.15 K | 43.18
358.15 K | 30.38
368.15 K | 22.22
373.15 K | 19.25
